Laboratory results taken from patent US20160206637A1, “Effects of Alpha-Glycerophosphocholine Versus Caffeine in Measures of Cognitive, Psychological and Physiological Functions” (priority 2015, published 2016).

What was measured:
[1] = system: recreationally active participants; assay: Serial subtraction test (SST) of cognitive function; type: in vivo, human; details: 30 minutes after supplementation; for SST score (average time per correct calculation): 200 mg oral, crossover, 20 participants
Source text: Following supplementation, participants performed all non-fatiguing tests first.

[2] = system: recreationally active participants; assay: Visual analog scale (VAS) for jitteriness; details: 200 mg caffeine; compared to αGPC-H (400 mg), but not αGPC-L or PL; 30 minutes after supplementation
Procedure: (§1) Upon arrival to the Human Performance Laboratory at Angelo State University on each of the 4 testing sessions, participants were provided with a sample of the supplement. Participants were assigned to consume a placebo, 200 mg of caffeine, 200 mg of α-GPC, and 400 mg of α-GPC in a randomized, double-blind, placebo controlled, cross-over manner. After consuming the supplement, participants waited 30 minutes before completing the testing protocol. All participants were advised that they should not have had anything to eat or drink, except for water, in the previous 8 hours. Additionally, participants were asked to refrain from consuming any food or beverages that contain caffeine or other stimulants for at least 24 hours prior to completing the testing sessions.
(§2) Twenty participants (10 males, 10 females; 22.0±3.4 years of age; height 171.9±7.4 cm; weight 56.8±8.6 kg) consumed 200 mg of αGPC (αGPC-L, Alpha-Size®, Chemi Nutra, Austin, Tex. USA), 400 mg of Alpha-GPC (αGPC-H), 200 mg of caffeine (CA), and a placebo (PL) in a randomized, double-blind, placebo-controlled, crossover design. Participants performed the following measurements 30 minutes after supplementation: visual analog scales (VAS) for six different moods, a serial subtraction test (SST), and tests for reaction time, hand-eye coordination, power, speed and agility.

[3] = system: recreationally active participants; assay: Vertical jump test, peak power (Tendo Unit); type: in vivo, human; details: 30 minutes after supplementation
Procedure: Participants were scored by the total number of successful catches. Following the non-fatiguing tests, the participants performed a standardized warm-up in which they walked on a treadmill for 5 minutes at 3 miles per hour. Following the warm-up, participants performed the fatiguing tests which included vertical jump, broad jump, 40 yard dash, and the pro-agility shuttle. […] Participants then performed three attempts for the standing broad jump. Maximum broad jump distance was recorded. Lastly, participants performed one 40 yard dash and one pro-agility shuttle (5-10-5 drill) on an indoor, wooden gymnasium floor. Times was measured by hand and recorded.
as §1, §2

[4] = system: healthy, college-aged males; assay: Upper body isometric test (UBIST) peak force; type: in vivo, human; details: 600 mg daily
Procedure: The Institutional Review Board at the University of Louisiana at Lafayette reviewed the present investigation for ethics. The study was a double-blind, placebo-controlled crossover with a 1-week washout period that included 13 healthy, college-aged males (Means±SD; Age: 21.9±2.2 years, Height: 180.3±7.7 cm; Weight: 87.6±15.6 kg, VO2 max: 40.08±7.23 ml O2*kg^−1; body fat: 17.5±4.6%). Subjects reported to the lab and give informed consent, which included consent to publish, prior to baseline assessments, which included height and weight, an assessment of maximum aerobic capacity via a COSMED CPET system (COSMED, Rome ITL) with integrated electronically braked cycle ergometer as outlined in previous studies incorporated herein by reference (5) and body fat percentage via air displacement plethysmography (Bod Pod Gold Standard System, COSMED Rome, ITL). The following week trial one (random order: either placebo or 600 mg of αGPC) began. For the trials baseline performance testing was done and they were given an initial dose (placebo or α-GPC) while in the lab, 1 h later the performance testing (isometric mid-thigh pull, upper body isometric test) was repeated. The subjects were then given 6 days of additional pre-packaged supplement to take (morning and evening). The subjects reported back on day 6 of this period to repeat performance testing after the final dose of supplement. After a 1-week washout period, the subjects repeated the trial with the other treatment (see FIG. 4). […]
The participants were positioned on three elevated platforms with the chest directly suspended over a load cell anchored into the concrete floor of the lab (iLoad Pro, Loadstar Sensors, Fremont Calif.). […] The participants were placed in a push-up style position, with the hands at 150% of biacromial width, and the elbows at 90° of extension (measured via a goniometer). […] The load cell was set to capture data at maximum rate (150 Hz) and the data was exported and analyzed in JMP 11.0 (SAS Institute Inc, Ca1y NC). […]
(§3) Reliability was assessed for the isometric tests via Intra Class Correlation Coefficients (ICC). […]

[5] = system: healthy, college-aged males; assay: Isometric mid-thigh pull (IMTP) peak force; type: in vivo, human
Procedure: The Institutional Review Board at the University of Louisiana at Lafayette reviewed the present investigation for ethics. The study was a double-blind, placebo-controlled crossover with a 1-week washout period that included 13 healthy, college-aged males (Means±SD; Age: 21.9±2.2 years, Height: 180.3±7.7 cm; Weight: 87.6±15.6 kg, VO2 max: 40.08±7.23 ml O2*kg^−1; body fat: 17.5±4.6%). Subjects reported to the lab and give informed consent, which included consent to publish, prior to baseline assessments, which included height and weight, an assessment of maximum aerobic capacity via a COSMED CPET system (COSMED, Rome ITL) with integrated electronically braked cycle ergometer as outlined in previous studies incorporated herein by reference (5) and body fat percentage via air displacement plethysmography (Bod Pod Gold Standard System, COSMED Rome, ITL). The following week trial one (random order: either placebo or 600 mg of αGPC) began. For the trials baseline performance testing was done and they were given an initial dose (placebo or α-GPC) while in the lab, 1 h later the performance testing (isometric mid-thigh pull, upper body isometric test) was repeated. The subjects were then given 6 days of additional pre-packaged supplement to take (morning and evening). The subjects reported back on day 6 of this period to repeat performance testing after the final dose of supplement. After a 1-week washout period, the subjects repeated the trial with the other treatment (see FIG. 4).
The treatments consisted of 600 mg daily of α-GPC (Alphasize®, ChemiNutra, Austin Tex.) or a placebo. Both treatments were administered in the same capsules (gel caps) and were the same color (white). The α-GPC capsules were supplied with a certificate of analysis from a third party lab confirming the amount of active ingredient. The placebo capsule consisted of microcrystalline cellulose and magnesium stearate (Nature's Supplements, Carlsbad, Calif. USA). Both the participant and researcher were unaware of the identity of either treatment until the end of the study. […]
The isometric mid-thigh pull test (IMTP) is a well validated strength measure (Beckman, G, et al. “Relationship of isometric mid-thigh pull variables to weightlifting performance.” J. Sports Med. Phys Fitness 2010; 35:573-81). […] The height of the bar was adjusted so that the participant was in a position where the torso was upright (assessed via a contractors box level), the knees achieved between 120-130° of flexion (measured via a goniometer) and the arms were straight while holding the bar. […] The peak force was assessed at a sampling rate of 2000 Hz using an AMT1 Force Plate. […]
as §3

Compound | SST score (average time per correct calculation) [1] | scores on the VAS for jitteriness [2] | Vertical Jump Peak Power ([3]; 200 mg oral) | Vertical Jump Peak Power higher in comparison to PL ([3]; 200 mg oral) | SST scores faster compared to CA ([1]; 200 mg αGPC (αGPC-L) vs 200 mg caffeine) | SST scores faster compared to PL ([1]; 200 mg αGPC (αGPC-L) vs placebo) | Vertical Jump Peak Power ([3]; 400 mg oral (αGPC-H)) | Vertical Jump Peak Power higher in comparison to PL ([3]; 400 mg oral (αGPC-H)) | magnitude based inference: likely beneficial for increasing upper body isometric force ([4]; 6 days) | UBIST force production, change from baseline ([4]; baseline to day 6) | UBIST effect size (ES, Cohen's d), treatment by time ([4]; day 6, vs placebo) | magnitude based inference: likely beneficial for increasing lower body isometric force production ([5]; 600 mg daily, 6 days) | IMTP effect size (ES, Cohen's d), treatment by time ([5]; 600 mg daily, day 6, vs placebo) | IMTP performance, acute treatment effect (repeated measures Anova) ([5]; 1 h after the initial dose, vs placebo) | increase in lower body isometric strength ([5]; 6 days of supplementation, 600 mg daily)
Cn1c(=O)c2c(ncn2C)n(C)c1=O [CA, caffeine] | 7.32 ± 5.67 s | significantly higher | 1,920.4±689.6 W | 2.0% | – | – | – | – | – | – | – | – | – | – | –
α-Glycerophosphocholine [αGPC] | 6.19 ± 2.21 s | – | 2,041.3±547.2 W | 8.5% | 18.1% | 10.5% | 2,023.1±942.8 W | 7.5% | 68.3% | 50.9±167.2 N | 0.714 | 86.5% | 0.961 | did not reveal any main effects | > 3%
